According to patent publication USRE48461E1, “Modulation of androgen receptor expression” (Ionis Pharmaceuticals, Inc., priority 2012, dated 2021):

Key:
Format in all cases: cell-based, human
PSA mRNA [1] = experiment: PSA expression in 22RV1 cells; settings: 48 hrs
Experimental: Cells were plated at 1,000 cells per well. […] After an incubation period of 48 hrs, RNA levels of full length AR, the V7 variant, PSA and TMPRSS2 were measured.
After an incubation period of 48 hrs, RNA levels of full length AR, the V7 variant, PSA and TMPRSS2 were measured.
Cells were plated at 2,000 cells per well and cultured in CSS media for 16 hours. […] After 4 hrs, 1 nM DHT was added. […] After an incubation period of 48 hrs, RNA levels of AR, AR V7 variant, PSA and TMPRSS2 were measured.

22RV1 cells = experiment: 22RV1 cell proliferation (Example 32); settings: 5 days
Experimental: After a treatment period of 5 days in complete medium, the proliferative capacity of the cancer cells was measured with using CellTiter 96® AQueous One or CellTiter-Glo® Solution Cell Proliferation kit (Promega), following the manufacturer's instructions. […] Treatment with ISIS oligonucleotides in CSS+DHT medium reduced the proliferative capacity to a greater extent than treatment with MVD-3100. The proliferative capacity of cells cultured in CSS medium without DHT is 12% of untreated control levels.

VCaP cells [2] = experiment: VCaP apoptosis (Caspase-Glo 3/7); settings: complete medium, 72 hours
Experimental: After a treatment period of 72 hours in complete medium, apoptosis of the cancer cells was measured with Caspase-Glo 3/7 assay (Promega). Results are presented in Tables 117 and 118 as percent apoptosis of the cells, relative to non-treated cells.

PSA mRNA [3] = experiment: PSA expression in C4-2B cells (Example 30); settings: 48 hrs
Experimental: Cells were plated at 1,000 cells per well. […] ISIS 549148 was included as a negative control. […] After an incubation period of 48 hrs, RNA levels of AR, PSA and TMPRSS2 were measured.
Cells were plated at 2,000 cells per well and cultured in CSS media with 1 nM DHT. […] ISIS 549148 was included as a negative control. […] After an incubation period of 48 hrs, RNA levels of AR, PSA and TMPRSS2 were measured. In the absence of DHT, AR expression in C4-2 cells was 188%, PSA expression was 43% and TMPRSS2 expression was 27% compared to the untreated control.

TMPRSS2 mRNA = TMPRSS2 mRNA levels in LMR20 cells; settings: for TMPRSS2 mRNA levels (% baseline value) after treatment with DHT / TMPRSS2 mRNA levels (% baseline value) after treatment with R1881 / TMPRSS2 mRNA levels (% baseline value) of cells without AR agonist treatment: LMR20 cells; for TMPRSS2 mRNA levels (% baseline value) after treatment with DHT: DHT 10 nM 72 hrs; for TMPRSS2 mRNA levels (% baseline value) after treatment with R1881: R1881 10 nM 72 hrs; for TMPRSS2 mRNA levels (% baseline value) of cells without AR agonist treatment: no AR agonist
Experimental: (§1) LMR20 cells were plated at 1,500 cells per well in phenol red-free medium with CSS.

AR mRNA [4] = experiment: AR mRNA levels in LMR20 cells (with/without DHT or R1881); settings: for AR mRNA levels (% baseline value) after treatment with DHT / AR mRNA levels (% baseline value) after treatment with R1881 / AR mRNA levels (% baseline value) of cells without AR agonist treatment: LMR20 cells; for AR mRNA levels (% baseline value) after treatment with DHT: DHT 10 nM 72 hrs; for AR mRNA levels (% baseline value) after treatment with R1881: R1881 10 nM 72 hrs; for AR mRNA levels (% baseline value) of cells without AR agonist treatment: no AR agonist
Experimental: as §1

VCaP cells [5] = experiment: VCaP cell proliferation; settings: 5 days; for Proliferation (% untreated control): VCaP cells
Experimental: After a treatment period of 5 days in complete medium or CSS+1 nM DHT medium, the proliferative capacity of the cancer cells was measured with using CellTiter 96® AQueous One or CellTiter-Glo® Solution Cell Proliferation kit (Promega), following the manufacturer's instructions. […] Treatment with ISIS oligonucleotides in CSS+DHT medium reduced the proliferative capacity to a greater extent than treatment with MVD-3100. The proliferative capacity of cells cultured in CSS medium without DHT is 12% of untreated control levels.

AR mRNA [6] = experiment: AR RNA expression in C4-2 cells (complete, CSS+DHT medium); settings: 48 hrs; for Percent expression of AR / AR expression: C4-2 cells; for Percent expression of AR: CSS + DHT medium
Experimental: Cells were plated at 1,000 cells per well. […] After an incubation period of 48 hrs, RNA levels of AR, PSA and TMPRSS2 were measured.
Cells were plated at 2,000 cells per well and cultured in CSS media with 1 nM DHT. […] After an incubation period of 48 hrs, RNA levels of AR, PSA and TMPRSS2 were measured.

CNC(=O)c1ccc(N2C(=S)N(c3ccc(C#N)c(C(F)(F)F)c3)C(=O)C2(C)C)cc1F [MDV3100, 4-(3-(4-cyano-3-(trifluoromethyl)phenyl)-5,5-dimethyl-4-oxo-2-thioxoimidazolidin-1-yl)-2-fluoro-N-methylbenzamide, reference compound]
Percent of gene expression, PSA (PSA mRNA [1]; CSS + DHT medium, 0.04 μM): 15% | Percent of gene expression, PSA (PSA mRNA [1]; CSS + DHT medium, 0.2 μM): 19% | Percent of gene expression, PSA (PSA mRNA [1]; CSS + DHT medium, 1.0 μM): 18% | Percent of gene expression, PSA (PSA mRNA [1]; CSS + DHT medium, 5.0 μM): 16% | Percent of gene expression, PSA (PSA mRNA [1]; complete medium, 0.04 μM): 83% | Percent of gene expression, PSA (PSA mRNA [1]; complete medium, 0.2 μM): 70% | Percent of gene expression, PSA (PSA mRNA [1]; complete medium, 1.0 μM): 71% | Percent of gene expression, PSA (PSA mRNA [1]; complete medium, 5.0 μM): 86% | Proliferation (% untreated control) in 22RV1 cells treated with MDV-3100 (22RV1 cells; 0.04 μM): 87% | Proliferation (% untreated control) in 22RV1 cells treated with MDV-3100 (22RV1 cells; 0.2 μM): 83% | Proliferation (% untreated control) in 22RV1 cells treated with MDV-3100 (22RV1 cells; 1.0 μM): 81% | Proliferation (% untreated control) in 22RV1 cells treated with MDV-3100 (22RV1 cells; 5.0 μM): 74% | proliferation of 22RV1 cells (22RV1 cells): reduced proliferation of the cells in a dose dependent compared to the control | Apoptosis (% untreated control) in VCaP cells treated with MDV-3100 (VCaP cells [2]; 5.0 nM): 528% | Apoptosis (% untreated control) in VCaP cells treated with MDV-3100 (VCaP cells [2]; 0.04 μM): 186% | Apoptosis (% untreated control) in VCaP cells treated with MDV-3100 (VCaP cells [2]; 0.2 μM): 210% | Apoptosis (% untreated control) in VCaP cells treated with MDV-3100 (VCaP cells [2]; 1.0 μM): 612% | apoptosis of VCaP cells (VCaP cells [2]): increased apoptosis of the cells in a dose dependent compared to the control | Percent inhibition of PSA expression (PSA mRNA [3]; CSS + DHT medium, 0.04 μM): 0% | Percent inhibition of PSA expression (PSA mRNA [3]; CSS + DHT medium, 0.2 μM): 0% | Percent inhibition of PSA expression (PSA mRNA [3]; CSS + DHT medium, 1 μM): 37% | Percent inhibition of PSA expression (PSA mRNA [3]; CSS + DHT medium, 5.0 μM): 45% | Percent inhibition of PSA expression (PSA mRNA [3]; complete medium, 0.04 μM): 8% | Percent inhibition of PSA expression (PSA mRNA [3]; complete medium, 0.2 μM): 27% | Percent inhibition of PSA expression (PSA mRNA [3]; complete medium, 1 μM): 73% | Percent inhibition of PSA expression (PSA mRNA [3]; complete medium, 5.0 μM): 88% | TMPRSS2 mRNA levels (% baseline value) after treatment with DHT (TMPRSS2 mRNA; ASO 0.04 μM): 134 % baseline value | TMPRSS2 mRNA levels (% baseline value) after treatment with DHT (TMPRSS2 mRNA; ASO 0.20 μM): 144 % baseline value | TMPRSS2 mRNA levels (% baseline value) after treatment with DHT (TMPRSS2 mRNA; ASO 1.0 μM): 132 % baseline value | TMPRSS2 mRNA levels (% baseline value) after treatment with DHT (TMPRSS2 mRNA; ASO 5.0 μM): 124 % baseline value | TMPRSS2 mRNA levels (% baseline value) after treatment with R1881 (TMPRSS2 mRNA; ASO 0.20 μM): 125 % baseline value | TMPRSS2 mRNA levels (% baseline value) after treatment with R1881 (TMPRSS2 mRNA; ASO 1.0 μM): 133 % baseline value | TMPRSS2 mRNA levels (% baseline value) after treatment with R1881 (TMPRSS2 mRNA; ASO 5.0 μM): 139 % baseline value | TMPRSS2 mRNA levels (% baseline value) of cells without AR agonist treatment (TMPRSS2 mRNA; ASO 0.04 μM): 101 % baseline value | TMPRSS2 mRNA levels (% baseline value) of cells without AR agonist treatment (TMPRSS2 mRNA; ASO 0.20 μM): 119 % baseline value | TMPRSS2 mRNA levels (% baseline value) of cells without AR agonist treatment (TMPRSS2 mRNA; ASO 1.0 μM): 119 % baseline value | TMPRSS2 mRNA levels (% baseline value) of cells without AR agonist treatment (TMPRSS2 mRNA; ASO 5.0 μM): 141 % baseline value | TMPRSS2 mRNA levels in LMR20 cells (TMPRSS2 mRNA; with or without DHT/R1881): did not reduce either PSA or TMPRSS2 mRNA levels | AR mRNA levels (% baseline value) after treatment with DHT (AR mRNA [4]; ASO 0.04 μM): 105 % baseline value | AR mRNA levels (% baseline value) after treatment with DHT (AR mRNA [4]; ASO 0.20 μM): 124 % baseline value | AR mRNA levels (% baseline value) after treatment with DHT (AR mRNA [4]; ASO 1.0 μM): 110 % baseline value | AR mRNA levels (% baseline value) after treatment with DHT (AR mRNA [4]; ASO 5.0 μM): 143 % baseline value | AR mRNA levels (% baseline value) after treatment with R1881 (AR mRNA [4]; ASO 0.04 μM): 94 % baseline value | AR mRNA levels (% baseline value) after treatment with R1881 (AR mRNA [4]; ASO 0.20 μM): 107 % baseline value | AR mRNA levels (% baseline value) after treatment with R1881 (AR mRNA [4]; ASO 1.0 μM): 115 % baseline value | AR mRNA levels (% baseline value) of cells without AR agonist treatment (AR mRNA [4]; ASO 0.04 μM): 106 % baseline value | AR mRNA levels (% baseline value) of cells without AR agonist treatment (AR mRNA [4]; ASO 0.20 μM): 101 % baseline value | AR mRNA levels (% baseline value) of cells without AR agonist treatment (AR mRNA [4]; ASO 1.0 μM): 99 % baseline value | AR mRNA levels (% baseline value) of cells without AR agonist treatment (AR mRNA [4]; ASO 5.0 μM): 92 % baseline value | AR mRNA levels in LMR20 cells (AR mRNA [4]; with or without DHT/R1881): increased the levels of AR mRNA in cells treated with AR agonist | Proliferation (% untreated control) (VCaP cells [5]; CSS + DHT medium, 0.04 μM): 117 % untreated control | Proliferation (% untreated control) (VCaP cells [5]; CSS + DHT medium, 0.2 μM): 119 % untreated control | Proliferation (% untreated control) (VCaP cells [5]; CSS + DHT medium, 1.0 μM): 71 % untreated control | Proliferation (% untreated control) (VCaP cells [5]; CSS + DHT medium, 5.0 μM): 65 % untreated control | Proliferation (% untreated control) (VCaP cells [5]; Complete medium, 0.04 μM): 49 % untreated control | Proliferation (% untreated control) (VCaP cells [5]; Complete medium, 0.2 μM): 44 % untreated control | Proliferation (% untreated control) (VCaP cells [5]; Complete medium, 1.0 μM): 27 % untreated control | Proliferation (% untreated control) (VCaP cells [5]; Complete medium, 5.0 μM): 17 % untreated control | proliferation of VCaP cells (VCaP cells [5]; complete medium or CSS+1 nM DHT): reduced proliferation of the cells in a dose dependent compared to the control | Percent expression of AR (AR mRNA [6]; 0.04 μM): 101% | Percent expression of AR (AR mRNA [6]; 0.2 μM): 109% | AR expression (AR mRNA [6]; CSS+DHT medium): increased AR expression in the cells | AR expression (AR mRNA [6]; complete medium): increased AR expression in the cells | Percent expression of AR in C4-2 cells cultured in complete medium (AR mRNA [6]; complete medium, 0.04 μM): 95% | Percent expression of AR in C4-2 cells cultured in complete medium (AR mRNA [6]; complete medium, 0.2 μM): 99% | Percent expression of AR in C4-2 cells cultured in complete medium (AR mRNA [6]; complete medium, 1 μM): 132% | Percent expression of AR in C4-2 cells cultured in complete medium (AR mRNA [6]; complete medium, 5.0 μM): 137%
